Measurements taken from patent publication US6676946B2 (priority 1997, dated 2004).
Entries after “also recorded” stand apart in the source; their conditions may differ.

How the values were obtained:
STTG6K(Biot)G peptide = test system: STTG6K(Biot)G peptide; set-up: species or system BALB/c mice; details: mouse, in vivo
[1] = test system: Tn3G6K(Biot)G glycopeptide; set-up: species or system BALB/c mice; details: mouse, in vivo
[2] = test system: T cell hybridoma 45G10 specific for PV; assay type: cell-based
MLS128 mAb = assay type: binding, mouse
[3] = test system: MLS 128 (IgG) anti-Tn monoclonal antibody; assay type: binding, mouse
[4] = test system: human Jurkat tumor cell line; details: in vivo
[5] = test system: T cell hybridomas 45G10 (specific for 103-115 poliovirus peptide); assay type: cell-based
lymph node (LN) cells = test system: lymph node (LN) cells; set-up: species or system BALB/c mice; details: mouse, in vivo, sc
Tn antigen (BT-TT1) = test system: Tn antigen (BT-TT1); set-up: species or system BALB/c mice; details: mouse, in vivo

Row | Substance | sera binding to unglycosylated STTG6K(Biot)G peptide (STTG6K(Biot)G peptide) | anti-Tn IgG antibodies [1] | stimulation of the 45G10 T cell hybrid [2] | inhibition of MLS128 binding to Tn3G6K(Biot)G (MLS128 mAb) | recognition of the Tn motif by the MLS 128 mAb, direct ELISA [3] | other results
1 | (S*T*T*G)2KLFAVWKITYKDT [Tn6-PV] | No sera binding was observed | induced anti-Tn IgG antibodies | stimulate | significant enhancement of the antigenicity | efficiently recognized | anti-Tn IgM antibodies [1]: detected; increase of antigenicity of the T cell epitope compared to unglycosylated PV peptide [2]: ~100 fold; binding of sera to Jurkat cells [4]: bound this human cell line; recognition of Jurkat cells / antibody production relative to Tn3-PV [4]: better; also recorded: significant benefit
2 | KLFAVWKITYKDT [PV, reference compound] | No sera binding was observed | no Tn specific antibodies were detected | stimulate |  | are not | recognition by PV-specific T-cell hybridoma [5]: recognize; proliferative T response specific for the T epitope (lymph node (LN) cells): induce in vivo a proliferative T response; induction of anti-Tn antibodies (Tn antigen (BT-TT1)): not
3 | S*T*T*QYIKANSKIGITEL [Tn3-TT] |  |  |  | only slightly affected | efficiently recognized | 
4 | STTGGGGGGKG [STTG6KG, reference compound] |  |  |  |  |  | competition with a-OSM for MLS 128 binding (MLS128 mAb): does not
5 | αGalNac-Ser [B] |  |  |  |  |  | stimulation of IL-2 production by the T hybridoma [5]: do not stimulate
